Broadly, the Ki is the equilibrium dissociation constant of an inhibitor or competing ligand from its target. Usually inhibition stands for the percentage by which the read-out fell short of the control.

Test [1] has as its target T1, SERT (Homo sapiens, UniProt P31645).
T1 construct: expressed in transfected cells
The test is described as follows: radioligand binding assay, [3H]-imipramine competition in SERT-containing membrane fractions. To be noted: 3 nM [3H]-imipramine; membranes of HEK293 YhSERT; mean ± SD of three experiments; Cheng-Prusoff; read-out: Ki, competitive binding with imipramine. The protocol:
(§1) ten minutes (for [3H]MPP+), by exchange of the substrate-containing buffer with 0.2 mL ice-cold KHB.
The KHB was aspirated immediately. Cells were lysed and prepared for [3H] content analysis by adding 0.2 mL Ultima Gold™ XR liquid scintillation cocktail. […]
microplate liquid scintillation counter. Non-specific uptake was determined in the presence of 30 µM paroxetine (for YhSERT), 50 µM GBR12909 (for YhDAT and hNET), or 100 µM decynium-22 (for YhOCT3).
For radioligand binding assays, membranes were first prepared from HEK293 cells stably expressing YhSERT. Cells were harvested from dishes using a plastic scraper and ice-cold PBS. Cells were recovered as a pellet after centrifugation (400× g) for 10 min at 4°C, and then re-suspended in HME buffer. The cell suspension was frozen rapidly by immersing in liquid N2, and then immediately thawed and sonicated for three 12 pulses/min cycles. Membrane fractions were collected after centrifugation at 40000× g for 15 minutes, and then re-suspended in HME buffer. Protein concentration was determined using Coomassie Brilliant Blue kit (BioRad Laboratories, California, USA). The binding reactions were carried out in a final volume of 0.25 mL B2 buffer containing 15 µg membranes, 3 nM

The target of test [2] is T1, SERT. In words: whole-cell patch clamp of 5-HT-mediated currents in SERT-expressing HEK293 cells. In kind it is cell-based. As to the method:
as §1
The KHB was aspirated immediately. Cells were lysed and prepared for [3H] content analysis by adding 0.2 mL Ultima Gold™ XR liquid scintillation cocktail. Measurements were performed in a 1450 MicroBeta microplate liquid scintillation counter. Non-specific uptake was determined in the presence of 30 µM paroxetine (for YhSERT), 50 µM GBR12909 (for YhDAT and hNET), or 100 µM decynium-22 (for YhOCT3).
For radioligand binding assays, membranes were first prepared from HEK293 cells stably expressing YhSERT. Cells were harvested from dishes using a plastic scraper and ice-cold PBS. Cells were recovered as a pellet after centrifugation (400× g) for 10 min at 4°C, and then re-suspended in HME buffer. […] Protein concentration was determined using Coomassie Brilliant Blue kit (BioRad Laboratories, California, USA). […] The amount of radioactivity in the filters was measured using a Tri-Carb 2800TR liquid scintillation analyzer (PerkinElmer). The Ki was calculated from the measured IC50 using the Cheng-Prusoff equation.
Prior to imaging, cell culture medium was replaced with pre-warmed KHB. […] PyrAtes were excited using a 405 nm laser, and its fluorescent signals collected using 525/50 nm emission filters; mCherry was excited using a 561 nm laser, and fluorescence was collected using 595/50 nm emission filters. […]
A general note: The patch-clamp technique gives a direct electrical read-out from membranes.

SMILES strings stand for the structures.

T1 sequence (P31645 whole entry): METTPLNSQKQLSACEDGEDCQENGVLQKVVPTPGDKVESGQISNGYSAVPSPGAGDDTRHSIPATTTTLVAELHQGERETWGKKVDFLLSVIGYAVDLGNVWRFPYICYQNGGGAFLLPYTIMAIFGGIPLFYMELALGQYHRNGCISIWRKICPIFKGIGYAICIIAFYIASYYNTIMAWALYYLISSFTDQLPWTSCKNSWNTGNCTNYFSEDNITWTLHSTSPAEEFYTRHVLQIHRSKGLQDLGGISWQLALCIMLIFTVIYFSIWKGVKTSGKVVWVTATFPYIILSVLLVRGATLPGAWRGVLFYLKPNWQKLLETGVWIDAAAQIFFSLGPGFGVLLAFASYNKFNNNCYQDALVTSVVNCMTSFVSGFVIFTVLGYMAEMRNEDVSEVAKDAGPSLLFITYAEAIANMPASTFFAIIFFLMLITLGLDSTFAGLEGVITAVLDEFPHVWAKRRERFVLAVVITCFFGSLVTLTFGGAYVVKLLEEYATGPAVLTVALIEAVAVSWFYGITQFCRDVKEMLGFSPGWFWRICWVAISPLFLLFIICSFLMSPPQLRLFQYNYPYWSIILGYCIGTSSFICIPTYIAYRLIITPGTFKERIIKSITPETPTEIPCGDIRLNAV

Consider `CCN(CC)c1ccc(-c2cc[n+]3c(-c4ccccc4)c(N4CCCC4)n(CCCCCCC(=O)NCc4ccc5c(c4)CO[C@@]5(CCCN(C)C)c4ccc(F)cc4)c3c2)cc1` [PYR-C6-CIT, PyrAte-C6-(S)-citalopram], for which the Ki in test [1] was 110 ± 70 nM. For the same molecule, the “ratio of 5-HT-mediated currents before and after application (current reduced to)” value in test [2] (1 μM compound, 10 µM 5HT, N = 6) was determined as 47%. For the same molecule, the inhibition at 1 µM in test [2] (HEK293, read-out: inhibition of 5-HT-mediated currents, 1 μM concentration) was around 50%.

For the origin of these results see paper PMC11891579, “Fluorescent PyrAte-(S)-citalopram conjugates enable imaging of the serotonin transporter in living tissue” (Chemical Science, 2025).
